Target: T1, human TLR7 (Homo sapiens, UniProt Q9NYK1)
T1 construct: host or cells: HEK293 (HEK-Blue hTLR7)
T1 sequence (Q9NYK1 27-1049): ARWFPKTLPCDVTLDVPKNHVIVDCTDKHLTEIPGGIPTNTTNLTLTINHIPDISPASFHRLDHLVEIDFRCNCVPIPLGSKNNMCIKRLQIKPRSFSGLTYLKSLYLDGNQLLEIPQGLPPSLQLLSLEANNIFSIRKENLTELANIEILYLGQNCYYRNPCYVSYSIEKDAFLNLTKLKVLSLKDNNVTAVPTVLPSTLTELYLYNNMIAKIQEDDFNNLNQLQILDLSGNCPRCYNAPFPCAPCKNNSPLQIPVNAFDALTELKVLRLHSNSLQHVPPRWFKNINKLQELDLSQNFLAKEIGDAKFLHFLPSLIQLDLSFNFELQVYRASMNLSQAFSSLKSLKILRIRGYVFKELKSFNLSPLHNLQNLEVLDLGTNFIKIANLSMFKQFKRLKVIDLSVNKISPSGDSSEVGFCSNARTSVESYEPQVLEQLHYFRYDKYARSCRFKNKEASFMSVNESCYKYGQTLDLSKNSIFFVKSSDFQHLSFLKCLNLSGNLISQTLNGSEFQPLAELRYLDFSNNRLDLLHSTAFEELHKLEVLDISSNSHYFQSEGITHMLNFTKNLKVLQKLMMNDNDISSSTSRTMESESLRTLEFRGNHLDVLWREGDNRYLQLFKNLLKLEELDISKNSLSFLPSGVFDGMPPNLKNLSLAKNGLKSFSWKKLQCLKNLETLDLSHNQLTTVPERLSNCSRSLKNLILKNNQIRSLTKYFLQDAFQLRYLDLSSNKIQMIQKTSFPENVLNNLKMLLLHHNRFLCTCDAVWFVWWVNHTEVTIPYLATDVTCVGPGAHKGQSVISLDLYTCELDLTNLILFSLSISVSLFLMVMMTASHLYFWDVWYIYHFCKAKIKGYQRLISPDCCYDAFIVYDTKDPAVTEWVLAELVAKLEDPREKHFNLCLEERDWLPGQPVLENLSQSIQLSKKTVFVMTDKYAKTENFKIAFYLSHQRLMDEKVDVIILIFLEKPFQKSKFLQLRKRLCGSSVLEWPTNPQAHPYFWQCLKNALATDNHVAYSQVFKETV
Assay: HEK293-Blue hTLR7 Reporter Assay (QUANTI-BLUE, SEAP readout)
Assay type: cell-based
Conditions: HEK-Blue-hTLR7 cells, 24 hrs treatment, Table 1, B1-B232
Procedure, shortened: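 HEK-Blue-hTLR7 cells expressing NF-κB/AP-1-driven SEAP, 4×10^4 cells/well, treated 24 h at 37° C with increasing compound concentrations. Supernatant SEAP measured with Quanti-blue substrate (10-30 min, 37° C) at 620-655 nm; EC50 from sigmoidal dose-response fit.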

EC50 [nM]	SMILES
88	CCCNc1nc(N)c2ncc(Cc3cnc(N4CCNCC4)c(C)c3)n2n1 [Compound B139, 7-((5-methyl-6-(piperazin-1-yl)pyridin-3-yl)methyl)-N2-propylimidazo[2,1-f][1,2,4]triazine-2,4-diamine]
154	CCCCc1nc(N)c2ncc(Cc3cnc(N4CCNCC4)c(C)c3)n2n1 [Compound B141, 2-butyl-7-((5-methyl-6-(piperazin-1-yl)pyridin-3-yl)methyl)imidazo[2,1-f][1,2,4]triazin-4-amine]
7.8	CCCC(CCC)Oc1nc(N)c2ncc(Cc3cnc(N4CCNCC4)c(C)c3)n2n1 [Compound B143, 2-(heptan-4-yloxy)-7-((5-methyl-6-(piperazin-1-yl)pyridin-3-yl)methyl)imidazo[2,1-f][1,2,4]triazin-4-amine]
6.3	CCCC(C)Nc1nc(N)c2ncc(Cc3cnc(N4CCN(C(=O)CNC)CC4)c(C)c3)n2n1 (centres unmarked) [Compound B149, 1-(4-(5-((4-amino-2-(pentan-2-ylamino)imidazo[2,1-f][1,2,4]triazin-7-yl)methyl)-3-methylpyridin-2-yl)piperazin-1-yl)-2-(methylamino)ethan-1-one]
2.5	CCCC(C)Nc1nc(N)c2ncc(Cc3cnc(N4CCNCC4)c(C)c3)n2n1 (centres unmarked) [Compound B150, 7-((5-methyl-6-(piperazin-1-yl)pyridin-3-yl)methyl)-N2-(pentan-2-yl)imidazo[2,1-f][1,2,4]triazine-2,4-diamine]
3	CCCC(C)Nc1nc(N)c2ncc(Cc3cnc(N4CCN(C(=O)CN(C)C)CC4)c(C)c3)n2n1 (centres unmarked) [Compound B151, 1-(4-(5-((4-amino-2-(pentan-2-ylamino)imidazo[2,1-f][1,2,4]triazin-7-yl)methyl)-3-methylpyridin-2-yl)piperazin-1-yl)-2-(dimethylamino)ethan-1-one]
1.6	CCC[C@H](C)Oc1nc(N)c2ncc(Cc3cnc(N4CCN(C(=O)CNC)CC4)c(C)c3)n2n1 [Compound B154, (S)-1-(4-(5-((4-amino-2-(pentan-2-yloxy)imidazo[2,1-f][1,2,4]triazin-7-yl)methyl)-3-methylpyridin-2-yl)piperazin-1-yl)-2-(methylamino)ethan-1-one]
25	CCC[C@@H](C)Oc1nc(N)c2ncc(Cc3cnc(N4CCN(C(=O)CNC)CC4)c(C)c3)n2n1 [Compound B160, (R)-1-(4-(5-((4-amino-2-(pentan-2-yloxy)imidazo[2,1-f][1,2,4]triazin-7-yl)methyl)-3-methylpyridin-2-yl)piperazin-1-yl)-2-(methylamino)ethan-1-one]
8	CCC(CC)Oc1nc(N)c2ncc(Cc3cnc(N4CCNCC4)c(C)c3)n2n1 [Compound B162, 7-((5-methyl-6-(piperazin-1-yl)pyridin-3-yl)methyl)-2-(pentan-3-yloxy)imidazo[2,1-f][1,2,4]triazin-4-amine]
2.5	CCCC(CC)Oc1nc(N)c2ncc(Cc3cnc(N4CCC(N(C)C)CC4)c(C)c3)n2n1 (centres unmarked) [Compound B163, 7-((6-(4-(dimethylamino)piperidin-1-yl)-5-methylpyridin-3-yl)methyl)-2-(hexan-3-yloxy)imidazo[2,1-f][1,2,4]triazin-4-amine]
4.1	CCCC(CC)Oc1nc(N)c2ncc(Cc3cnc(N4CCC(CN(C)C)CC4)c(C)c3)n2n1 (centres unmarked) [Compound B164, 7-((6-(4-((dimethylamino)methyl)piperidin-1-yl)-5-methylpyridin-3-yl)methyl)-2-(hexan-3-yloxy)imidazo[2,1-f][1,2,4]triazin-4-amine]
2.6	CCCC(C)Nc1nc(N)c2ncc(Cc3cnc(N4CCC(NC)CC4)c(C)c3)n2n1 (centres unmarked) [Compound B166, 7-((5-methyl-6-(4-(methylamino)piperidin-1-yl)pyridin-3-yl)methyl)-N2-(pentan-2-yl)imidazo[2,1-f][1,2,4]triazine-2,4-diamine]
497	Cc1cc(Cc2cnc3c(N)nc(OC4CCCCC4)nn23)cnc1N1CCNCC1 [Compound B167, 2-(cyclohexyloxy)-7-((5-methyl-6-(piperazin-1-yl)pyridin-3-yl)methyl)imidazo[2,1-f][1,2,4]triazin-4-amine]
2.9	CCCC(CC)Oc1nc(N)c2ncc(Cc3cnc(N4CCN(C(=O)CN(C)C)CC4)c(C)c3)n2n1 (centres unmarked) [Compound B169, 1-(4-(5-((4-amino-2-(hexan-3-yloxy)imidazo[2,1-f][1,2,4]triazin-7-yl)methyl)-3-methylpyridin-2-yl)piperazin-1-yl)-2-(dimethylamino)ethan-1-one]

SMILES	EC50 [nM]
CCCCOc1nc(N)c2ncc(Cc3cnc(N4CCC(NC(=O)CN(C)C)CC4)c(C)c3)n2n1 [Compound B142, N-(1-(5-((4-amino-2-butoxyimidazo[2,1-f][1,2,4]triazin-7-yl)methyl)-3-methylpyridin-2-yl)piperidin-4-yl)-2-(dimethylamino)acetamidea]	45
CCCCOc1nc(N)c2ncc(Cc3cnc(N4CCC(CN)CC4)c(C)c3)n2n1 [Compound B144, 7-((6-(4-(aminomethyl)piperidin-1-yl)-5-methylpyridin-3-yl)methyl)-2-butoxyimidazo[2,1-f][1,2,4]triazin-4-amine]	> 10000
CC[C@H](C)Oc1nc(N)c2ncc(Cc3cnc(N4CCN(C(=O)CN(C)C)CC4)c(C)c3)n2n1 [Compound B145, (S)-1-(4-(5-((4-amino-2-(sec-butoxy)imidazo[2,1-f] [1,2,4]triazin-7-yl)methyl)-3-methylpyridin-2-yl)piperazin-1-yl)-2-(dimethylamino)ethan-1-one]	8
CC[C@H](C)Oc1nc(N)c2ncc(Cc3cnc(N4CCN(C(=O)CNC)CC4)c(C)c3)n2n1 [Compound B146, (S)-1-(4-(5-((4-amino-2-(sec-butoxy)imidazo[2,1-f][1,2,4]triazin-7-yl)methyl)-3-methylpyridin-2-yl)piperazin-1-yl)-2-(methylamino)ethan-1-one]	10
CC[C@@H](C)Oc1nc(N)c2ncc(Cc3cnc(N4CCNCC4)c(C)c3)n2n1 [Compound B152, (R)-2-(sec-butoxy)-7-((5-methyl-6-(piperazin-1-yl)pyridin-3-yl)methyl)imidazo[2,1-f][1,2,4]triazin-4-amine]	56
CC[C@@H](C)Oc1nc(N)c2ncc(Cc3cnc(N4CCN(C(=O)CN(C)C)CC4)c(C)c3)n2n1 [Compound B153, (R)-1-(4-(5-((4-amino-2-(sec-butoxy)imidazo[2,1-f][1,2,4]triazin-7-yl)methyl)-3-methylpyridin-2-yl)piperazin-1-yl)-2-(dimethylamino)ethan-1-one]	49
CCC(C)Oc1nc(N)c2ncc(Cc3cnc(N4CCN(C(=O)CN(C)C)CC4)c(C)c3)n2n1 (centres unmarked) [Compound B155, 1-(4-(5-((4-amino-2-(sec-butoxy)imidazo[2,1-f][1,2,4]triazin-7-yl)methyl)-3-methylpyridin-2-yl)piperazin-1-yl)-2-(dimethylamino)ethan-1-one]	8.3
CCC(C)Oc1nc(N)c2ncc(Cc3cnc(N4CCN(C(=O)CNC)CC4)c(C)c3)n2n1 (centres unmarked) [Compound B156, 1-(4-(5-((4-amino-2-(sec-butoxy)imidazo[2,1-f][1,2,4]triazin-7-yl)methyl)-3-methylpyridin-2-yl)piperazin-1-yl)-2-(methylamino)ethan-1-one]	9.7
CC[C@H](C)Oc1nc(N)c2ncc(Cc3cnc(N4CCNCC4)c(C)c3)n2n1 [Compound B158, (S)-2-(sec-butoxy)-7-((5-methyl-6-(piperazin-1-yl)pyridin-3-yl)methyl)imidazo[2,1-f][1,2,4]triazin-4-amine]	6.5
CC[C@@H](C)Oc1nc(N)c2ncc(Cc3cnc(N4CCN(C(=O)CNC)CC4)c(C)c3)n2n1 [Compound B159, (R)-1-(4-(5-((4-amino-2-(sec-butoxy)imidazo[2,1-f] [1,2,4]triazin-7-yl)methyl)-3-methylpyridin-2-yl)piperazin-1-yl)-2-(methylamino)ethan-1-one]	48
CCCCOc1nc(N)c2ncc(Cc3cnc(N4CCC(NC)CC4)c(C)c3)n2n1 [Compound B161, 2-butoxy-7-((5-methyl-6-(4-(methylamino)piperidin-1-yl)pyridin-3-yl)methyl)imidazo[2,1-f][1,2,4]triazin-4-amine]	11
CCCCOc1nc(N)c2ncc(Cc3cnc(N4C[C@@H]5C[C@H]4CN5)c(C)c3)n2n1 [Compound B168, 7-((6-((1S,4S)-2,5-diazabicyclo[2.2.1]heptan-2-yl)-5-methylpyridin-3-yl)methyl)-2-butoxyimidazo[2,1-f][1,2,4]triazin-4-amine]	124

From patent US12612407B2, “Imidazo[2,1-f][1,2,4]triazin-4-amine derivatives as TLR7 agonist” (BEIGENE, LTD., priority 2020, dated 2026)
